Measurements from the supplement of paper PMC4628005.

What was measured:
Conditions in all cases: drug exposure time: 96 h
Erlotinib = compound: C#Cc1cccc(Nc2ncnc3cc(OCCOC)c(OCCOC)cc23)c1 [Erlotinib]
Description: (§1)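 Breast cancer cell lines were grown in RPMI 1640 with 10% FBS on collagen I-coated 96-well plates and treated for 96 h (from 24 h after seeding) with 12 dilutions per drug, in triplicate. Growth was read by sulforhodamine B total-protein staining (absorbance 570 nm) relative to diluent control, and IC50 was calculated. The top dose was 1e-5 M for most drugs; Bortezomib went to 2e-5 M and Sirolimus and 17-AAG to 2e-6 M[…].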

Docetaxel = compound: CC(=O)O[C@@]12CO[C@@H]1C[C@H](O)[C@@]1(C)C(=O)[C@H](O)C3=C(C)[C@@H](OC(=O)[C@H](O)[C@@H](NC(=O)OC(C)(C)C)c4ccccc4)C[C@@](O)([C@@H](OC(=O)c4ccccc4)[C@H]21)C3(C)C [Docetaxel]
Description: as §1

Paclitaxel = compound: CC(=O)O[C@H]1C(=O)[C@@]2(C)[C@H]([C@H](OC(=O)c3ccccc3)[C@]3(O)C[C@H](OC(=O)[C@H](O)[C@@H](NC(=O)c4ccccc4)c4ccccc4)C(C)=C1C3(C)C)[C@]1(OC(C)=O)CO[C@@H]1C[C@@H]2O [Paclitaxel]
Description: as §1

MI-219 = compound: CC(C)(C)C[C@H]1N[C@@H](C(=O)NCC[C@H](O)CO)[C@H](c2cccc(Cl)c2)[C@@]12C(=O)Nc1cc(Cl)c(F)cc12 [MI-219]
Description: as §1

Tamoxifen = compound: CC/C(=C(\c1ccccc1)c1ccc(OCCN(C)C)cc1)c1ccccc1 [Tamoxifen]
Description: as §1

Sunitinib = compound: CCN(CC)CCNC(=O)c1c(C)[nH]c(/C=C2\C(=O)Nc3ccc(F)cc32)c1C [Sunitinib]
Description: as §1

Methotrexate = compound: CN(Cc1cnc2nc(N)nc(N)c2n1)c1ccc(C(=O)N[C@@H](CCC(=O)O)C(=O)O)cc1 [Methotrexate]
Description: as §1

Sorafenib = compound: CNC(=O)c1cc(Oc2ccc(NC(=O)Nc3ccc(Cl)c(C(F)(F)F)c3)cc2)ccn1 [Sorafenib]
Description: as §1

Vandetanib = compound: COc1cc2/c(=N/c3ccc(Br)cc3F)nc[nH]c2cc1OCC1CCN(C)CC1 [Vandetanib]
Description: as §1

Gefitinib = compound: COc1cc2ncnc(Nc3ccc(F)c(Cl)c3)c2cc1OCCCN1CCOCC1 [Gefitinib]
Description: as §1

Nutlin-3 = compound: COc1ccc(C2=N[C@@H](c3ccc(Cl)cc3)[C@@H](c3ccc(Cl)cc3)N2C(=O)N2CCNC(=O)C2)c(OC(C)C)c1 [Nutlin-3]
Description: as §1

Doxorubicin = compound: COc1cccc2c1C(=O)c1c(O)c3c(c(O)c1C2=O)C[C@@](O)(C(=O)CO)C[C@@H]3O[C@H]1C[C@H](N)[C@H](O)[C@H](C)O1 [Doxorubicin]
Description: as §1

Lapatinib = compound: CS(=O)(=O)CCNCc1ccc(-c2ccc3ncnc(Nc4ccc(OCc5cccc(F)c5)c(Cl)c4)c3c2)o1 [Lapatinib]
Description: as §1

Panobinostat = compound: Cc1[nH]c2ccccc2c1CCNCc1ccc(/C=C/C(=O)NO)cc1 [Panobinostat]
Description: as §1

Brivanib = compound: Cc1cc2c(F)c(Oc3ncnn4cc(OC[C@@H](C)O)c(C)c34)ccc2[nH]1 [Brivanib]
Description: as §1

Dasatinib = compound: Cc1nc(Nc2ncc(C(=O)Nc3c(C)cccc3Cl)s2)cc(N2CCN(CCO)CC2)n1 [Dasatinib]
Description: as §1

Quisinostat = compound: Cn1cc(CNCC2CCN(c3ncc(C(=O)NO)cn3)CC2)c2ccccc21 [Quisinostat]
Description: as §1

Tipifarnib = compound: Cn1cncc1[C@@](N)(c1ccc(Cl)cc1)c1ccc2c(c1)c(-c1cccc(Cl)c1)cc(=O)n2C [Tipifarnib]
Description: as §1

Cisplatin = compound: N.N.[Cl][Pt][Cl] [Cisplatin]
Description: as §1

Azacitidine = compound: Nc1ncn([C@@H]2O[C@H](CO)[C@@H](O)[C@H]2O)c(=O)n1 [Azacitidine]
Description: as §1

Decitabine = compound: Nc1ncn([C@H]2C[C@H](O)[C@@H](CO)O2)c(=O)n1 [Decitabine]
Description: as §1

Belinostat = compound: O=C(/C=C/c1cccc(S(=O)(=O)Nc2ccccc2)c1)NO [Belinostat]
Description: as §1

Vorinostat = compound: O=C(CCCCCCC(=O)Nc1ccccc1)NO [Vorinostat]
Description: as §1

ARQ197 = compound: O=C1NC(=O)[C@@H](c2cn3c4c(cccc24)CCC3)[C@@H]1c1c[nH]c2ccccc12 [ARQ197]
Description: as §1

Mitoxantrone = compound: O=C1c2c(O)ccc(O)c2C(=O)c2c(NCCNCCO)ccc(NCCNCCO)c21 [Mitoxantrone]
Description: as §1

5-Fluorouracil = compound: O=c1[nH]cc(F)c(=O)[nH]1 [5-Fluorouracil]
Description: as §1

Serdemetan = compound: c1ccc2c(CCNc3ccc(Nc4ccncc4)cc3)c[nH]c2c1 [Serdemetan]
Description: as §1

17-AAG = compound: C=CCNC1=C2C[C@@H](C)C[C@H](OC)[C@H](O)[C@@H](C)/C=C(\C)[C@H](OC(N)=O)[C@@H](OC)/C=C\C=C(/C)C(=O)NC(=CC1=O)C2=O [17-AAG]
Description: (§2)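 Same SRB 96 h IC50 screen on breast cancer cell lines (RPMI 1640 + 10% FBS, collagen I-coated 96-well plates, triplicates, 12 dilutions), for drugs with a different dose range: Bortezomib up to 2e-5 M; Sirolimus and 17-AAG up to 2e-6 M. Sirolimus values at the 2e-6 M top dose are censored.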

Bortezomib = compound: CC(C)C[C@H](NC(=O)[C@H](Cc1ccccc1)NC(=O)c1cnccn1)B(O)O [Bortezomib]
Description: as §2

Sirolimus = compound: CO[C@H]1C[C@@H]2CC[C@@H](C)[C@@](O)(O2)C(=O)C(=O)N2CCCC[C@H]2C(=O)O[C@H]([C@H](C)C[C@@H]2CC[C@@H](O)[C@H](OC)C2)CC(=O)[C@H](C)/C=C(\C)[C@@H](O)[C@@H](OC)C(=O)[C@H](C)C[C@H](C)/C=C/C=C/C=C/1C [Sirolimus]
Description: as §2

## UACC 812
Erlotinib
  IC50 (SRB growth assay): 4080 nM
Docetaxel
  IC50 (SRB growth assay): 1.65 nM
Paclitaxel
  IC50 (SRB growth assay): 5.67 nM
MI-219
  IC50 (SRB growth assay): 822 nM
Tamoxifen
  IC50 (SRB growth assay): > 10000 nM
Sunitinib
  IC50 (SRB growth assay): 5490 nM
Methotrexate
  IC50 (SRB growth assay): > 10000 nM
Sorafenib
  IC50 (SRB growth assay): 3110 nM
Vandetanib
  IC50 (SRB growth assay): 3540 nM
Gefitinib
  IC50 (SRB growth assay): 4830 nM
Nutlin-3
  IC50 (SRB growth assay): 1720 nM
Doxorubicin
  IC50 (SRB growth assay): 79.9 nM
Lapatinib
  IC50 (SRB growth assay): 132 nM
Panobinostat
  IC50 (SRB growth assay): 29.9 nM
Brivanib
  IC50 (SRB growth assay): > 10000 nM
Dasatinib
  IC50 (SRB growth assay): 1600 nM
Quisinostat
  IC50 (SRB growth assay): 17.2 nM
Tipifarnib
  IC50 (SRB growth assay): 666 nM
Cisplatin
  IC50 (SRB growth assay): > 10000 nM
Azacitidine
  IC50 (SRB growth assay): > 10000 nM
Decitabine
  IC50 (SRB growth assay): > 10000 nM
Belinostat
  IC50 (SRB growth assay): 901 nM
Vorinostat
  IC50 (SRB growth assay): 2270 nM
ARQ197
  IC50 (SRB growth assay): 528 nM
Mitoxantrone
  IC50 (SRB growth assay): 275 nM
5-Fluorouracil
  IC50 (SRB growth assay): 6240 nM
Serdemetan
  IC50 (SRB growth assay): 1050 nM
17-AAG
  IC50 (SRB growth assay): 3.62 nM
Bortezomib
  IC50 (SRB growth assay): 7.5 nM
Sirolimus
  IC50 (SRB growth assay): 0.144 nM

## SUM 52 PE
Erlotinib
  IC50 (SRB growth assay): 8810 nM
Docetaxel
  IC50 (SRB growth assay): 0.489 nM
Paclitaxel
  IC50 (SRB growth assay): 1.42 nM
MI-219
  IC50 (SRB growth assay): > 10000 nM
Tamoxifen
  IC50 (SRB growth assay): 6890 nM
Sunitinib
  IC50 (SRB growth assay): 1160 nM
Methotrexate
  IC50 (SRB growth assay): 23.2 nM
Sorafenib
  IC50 (SRB growth assay): 655 nM
Vandetanib
  IC50 (SRB growth assay): 711 nM
Gefitinib
  IC50 (SRB growth assay): 7870 nM
Nutlin-3
  IC50 (SRB growth assay): > 10000 nM
Doxorubicin
  IC50 (SRB growth assay): 17.7 nM
Lapatinib
  IC50 (SRB growth assay): 3210 nM
Panobinostat
  IC50 (SRB growth assay): 7.17 nM
Brivanib
  IC50 (SRB growth assay): 1270 nM
Dasatinib
  IC50 (SRB growth assay): 2200 nM
Quisinostat
  IC50 (SRB growth assay): 1.47 nM
Tipifarnib
  IC50 (SRB growth assay): 185 nM
Cisplatin
  IC50 (SRB growth assay): 6700 nM
Azacitidine
  IC50 (SRB growth assay): 2000 nM
Decitabine
  IC50 (SRB growth assay): 2210 nM
Belinostat
  IC50 (SRB growth assay): 183 nM
Vorinostat
  IC50 (SRB growth assay): 366 nM
ARQ197
  IC50 (SRB growth assay): 427 nM
Mitoxantrone
  IC50 (SRB growth assay): 7.57 nM
5-Fluorouracil
  IC50 (SRB growth assay): 1240 nM
Serdemetan
  IC50 (SRB growth assay): 570 nM
17-AAG
  IC50 (SRB growth assay): 35.4 nM
Bortezomib
  IC50 (SRB growth assay): 5.23 nM
Sirolimus
  IC50 (SRB growth assay): 0.165 nM

## ZR 75-1
Erlotinib
  IC50 (SRB growth assay): > 10000 nM
Docetaxel
  IC50 (SRB growth assay): 4.52 nM
Paclitaxel
  IC50 (SRB growth assay): 6.65 nM
MI-219
  IC50 (SRB growth assay): > 10000 nM
Tamoxifen
  IC50 (SRB growth assay): 4490 nM
Sunitinib
  IC50 (SRB growth assay): > 10000 nM
Methotrexate
  IC50 (SRB growth assay): 34.5 nM
Sorafenib
  IC50 (SRB growth assay): 5980 nM
Vandetanib
  IC50 (SRB growth assay): 3820 nM
Gefitinib
  IC50 (SRB growth assay): > 10000 nM
Nutlin-3
  IC50 (SRB growth assay): > 10000 nM
Doxorubicin
  IC50 (SRB growth assay): 44.9 nM
Lapatinib
  IC50 (SRB growth assay): 6330 nM
Panobinostat
  IC50 (SRB growth assay): 46.8 nM
Brivanib
  IC50 (SRB growth assay): > 10000 nM
Dasatinib
  IC50 (SRB growth assay): 1660 nM
Quisinostat
  IC50 (SRB growth assay): 27.1 nM
Tipifarnib
  IC50 (SRB growth assay): 822 nM
Cisplatin
  IC50 (SRB growth assay): > 10000 nM
Azacitidine
  IC50 (SRB growth assay): 3750 nM
Decitabine
  IC50 (SRB growth assay): > 10000 nM
Belinostat
  IC50 (SRB growth assay): 1680 nM
Vorinostat
  IC50 (SRB growth assay): 2980 nM
ARQ197
  IC50 (SRB growth assay): 733 nM
Mitoxantrone
  IC50 (SRB growth assay): 10.2 nM
5-Fluorouracil
  IC50 (SRB growth assay): 2320 nM
Serdemetan
  IC50 (SRB growth assay): 822 nM
17-AAG
  IC50 (SRB growth assay): 45.9 nM
Bortezomib
  IC50 (SRB growth assay): 5.51 nM
Sirolimus
  IC50 (SRB growth assay): 0.244 nM
